{
  "source": "patent US20260061026A1",
  "about": "“COMBINATION OF INOSITOL PHOSPHORYLCERAMIDE SYNTHETASE INHIBITOR AND AMPHOTERICIN B, AND USE THEREOF” (priority 2023, published 2026)",
  "system": "Cryptococcus neoformans var. grubii H99",
  "test": "Fungicidal efficacy (CFU survival rate) of AbA, AmB and their combination, with or without IPC",
  "type": "cell-based",
  "settings": "AmB 1 μg/mL, 1 hour in YPD medium; for the combination AbA 1 μg/mL added 6 hours before AmB",
  "experimental": "In this example, the antifungal activity of AbA was evaluated. Specifically, the inventors tested the activity of AbA alone and in combination with AmB against Cryptococcus. In addition, the inventors also tested the effect of purified IPC on the antifungal activity of AbA alone and in combination with AmB against Cryptococcus. The specific experimental procedures are as follows.\nIn this example, a total of 5 groups were set up, including AbA alone, AmB alone, AbA combined with AmB, AbA combined with AmB in the presence of 1 mg/mL IPC, and AbA combined with AmB in the presence of 10 mg/mL IPC. The fungicidal efficacy of the above 5 groups of treatments against Cryptococcus neoformans var. grubii H99 (a laboratory strain) was evaluated. The survival rate of Cryptococcus after 1 hour of treatment with AmB in YPD medium was determined by calculating the CFU ratio between AmB-treated and untreated samples. AbA and IPC were added 6 hours prior to AmB treatment as a pre-treatment. AbA was purchased from Biorigin, AmB from Inalco, and IPC was extracted from an ERG6 gene knockout H99 mutant strain defective in ergosterol biosynthesis.",
  "data": [
    {"smiles": "C[C@@H]1[C@H](O)[C@@H](C)/C=C/C=C/C=C/C=C/C=C/C=C/C=C/[C@H](O[C@@H]2O[C@H](C)[C@@H](O)[C@H](N)[C@@H]2O)C[C@@H]2O[C@](O)(C[C@@H](O)C[C@@H](O)[C@H](O)CC[C@@H](O)C[C@@H](O)CC(=O)O[C@H]1C)C[C@H](O)[C@H]2C(=O)O", "note": "[AmB, amphotericin B]", "values": [
      {"measurement": "survival rate of Cryptococcus neoformans (CFU ratio between AmB-treated and untreated samples)", "value": 39, "unit": "%"}
    ]}
  ]
}
